{"source": "patent US20220306640A1", "about": "“HYDANTOIN DERIVATIVE” (ONO PHARMACEUTICAL CO., LTD., priority 2019, published 2022)", "key": {"DDR1": {"target": "T1, DDR1 (Homo sapiens, UniProt Q08345)", "T1 construct": "purchased Invitrogen", "T1 sequence (Q08345 19-913)": "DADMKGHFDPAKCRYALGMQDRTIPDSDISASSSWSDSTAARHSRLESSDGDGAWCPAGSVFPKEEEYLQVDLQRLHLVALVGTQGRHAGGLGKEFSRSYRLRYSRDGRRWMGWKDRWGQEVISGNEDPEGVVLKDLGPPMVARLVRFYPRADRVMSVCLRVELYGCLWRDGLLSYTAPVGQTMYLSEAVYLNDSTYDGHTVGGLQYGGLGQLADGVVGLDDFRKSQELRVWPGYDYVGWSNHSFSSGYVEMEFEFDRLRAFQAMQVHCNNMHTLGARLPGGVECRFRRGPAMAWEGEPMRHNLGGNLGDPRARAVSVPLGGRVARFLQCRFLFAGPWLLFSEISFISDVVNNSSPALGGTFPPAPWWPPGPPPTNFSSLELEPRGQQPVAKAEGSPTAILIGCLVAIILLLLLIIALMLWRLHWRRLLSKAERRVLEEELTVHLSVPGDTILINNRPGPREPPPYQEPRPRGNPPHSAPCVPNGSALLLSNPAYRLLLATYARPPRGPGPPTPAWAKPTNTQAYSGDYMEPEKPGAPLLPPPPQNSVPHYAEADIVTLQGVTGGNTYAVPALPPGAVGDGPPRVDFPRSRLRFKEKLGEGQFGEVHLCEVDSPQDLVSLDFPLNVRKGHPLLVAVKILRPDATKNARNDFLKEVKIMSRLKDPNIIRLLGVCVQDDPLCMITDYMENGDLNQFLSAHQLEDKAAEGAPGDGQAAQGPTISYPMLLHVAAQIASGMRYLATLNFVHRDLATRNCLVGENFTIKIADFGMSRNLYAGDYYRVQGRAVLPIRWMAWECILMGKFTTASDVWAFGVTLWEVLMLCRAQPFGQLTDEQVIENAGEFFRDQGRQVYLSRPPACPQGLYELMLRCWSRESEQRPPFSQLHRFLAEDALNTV", "test": "Measurement of DDR1 inhibitory activity (LanthaScreen system, in vitro test)", "format": "binding", "details": "GST-DDR1, Kinase tracer 178", "summary_of_the_method": "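TR-FRET tracer-displacement binding assay with GST-DDR1, Kinase tracer 178 and Eu-anti-GST antibody in HEPES pH 7.5, MgCl2, EGTA, Brij-35 buffer, 1% DMSO. Compound preincubated with enzyme 15 min at RT, then tracer/antibody 1 h at RT; 665/615 nm read. Percent inhibition versus no-enzyme and DMSO controls; IC50 from inhibition curves.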"}, "KDR": {"target": "KDR (Homo sapiens, UniProt P35968)", "sequence (P35968 20-1356, species assumed)": "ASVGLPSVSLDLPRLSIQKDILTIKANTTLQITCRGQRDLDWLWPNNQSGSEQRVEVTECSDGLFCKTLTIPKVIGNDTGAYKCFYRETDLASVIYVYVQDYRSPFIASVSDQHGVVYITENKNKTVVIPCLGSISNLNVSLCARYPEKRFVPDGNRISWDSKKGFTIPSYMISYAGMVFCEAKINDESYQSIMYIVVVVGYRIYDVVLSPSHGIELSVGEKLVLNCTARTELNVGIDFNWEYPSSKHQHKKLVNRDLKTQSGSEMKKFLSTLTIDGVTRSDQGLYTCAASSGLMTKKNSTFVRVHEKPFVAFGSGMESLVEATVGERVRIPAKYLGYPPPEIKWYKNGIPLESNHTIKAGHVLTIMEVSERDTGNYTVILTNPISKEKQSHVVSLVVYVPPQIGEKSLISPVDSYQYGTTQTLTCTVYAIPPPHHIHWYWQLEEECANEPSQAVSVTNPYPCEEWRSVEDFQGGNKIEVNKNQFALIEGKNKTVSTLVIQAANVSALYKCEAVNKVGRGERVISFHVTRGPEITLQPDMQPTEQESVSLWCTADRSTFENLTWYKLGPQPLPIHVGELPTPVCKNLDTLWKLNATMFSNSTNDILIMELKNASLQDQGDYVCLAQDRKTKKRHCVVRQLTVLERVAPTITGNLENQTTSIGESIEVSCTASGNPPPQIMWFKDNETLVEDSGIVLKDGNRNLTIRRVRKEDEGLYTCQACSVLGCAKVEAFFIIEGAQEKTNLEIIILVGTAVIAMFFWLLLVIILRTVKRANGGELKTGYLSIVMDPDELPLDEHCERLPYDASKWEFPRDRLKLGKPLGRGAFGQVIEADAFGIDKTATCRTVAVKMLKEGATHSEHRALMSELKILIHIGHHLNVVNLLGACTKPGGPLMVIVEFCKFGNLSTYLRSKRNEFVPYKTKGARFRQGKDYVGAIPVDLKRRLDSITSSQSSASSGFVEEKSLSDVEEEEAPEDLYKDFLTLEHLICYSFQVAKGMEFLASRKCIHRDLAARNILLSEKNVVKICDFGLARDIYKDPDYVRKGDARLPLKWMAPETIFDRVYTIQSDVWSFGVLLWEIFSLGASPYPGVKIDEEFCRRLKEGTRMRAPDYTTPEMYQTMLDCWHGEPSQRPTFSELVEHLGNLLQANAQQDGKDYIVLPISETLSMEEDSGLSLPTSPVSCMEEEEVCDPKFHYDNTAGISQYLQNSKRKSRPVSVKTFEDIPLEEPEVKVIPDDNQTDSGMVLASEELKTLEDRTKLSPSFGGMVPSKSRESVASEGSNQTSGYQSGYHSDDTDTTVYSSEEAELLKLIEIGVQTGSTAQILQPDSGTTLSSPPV", "test": "Evaluation of kinase selectivity: % inhibition rate of KDR at 1 μmol/L", "format": "biochemical", "details": "compound at 1 μmol/L", "experimental": "Biological Example 3: Evaluation of Kinase Selectivity\n% inhibition rate with respect to various kinases (for example KDR etc.) of 1 μmol/L the test compound is measured.\nA general assay condition (substrates, cofactor, ATP concentrations and reaction time etc.) suitable for respective kinase enzyme inhibition activity test is used.\n1 Prepare the test compounds into 1 mmol/L DMSO solution. 2 Transfer 20 nL of stock to 384 assay plate. Use DMSO as High and Low controls.\n1 Prepare the 1.3× Enzyme solution containing enzyme, substrate and cofactors. 2 Add 15 μL of 1.3× Enzyme solutions to each well and incubate the plate at room temperature for 30 min. 3 Initiate the reaction by adding 5 μL of 4×ATP solution. The final volume of each well should be 20 μL. 4 Incubate the plate at room temperature for reaction and add 75 μL of stopping buffer (containing 0.5 mol/L EDTA) to terminate the reaction.\nAnalyze the sample of each well using EZ reader (PerkinElmer).\nCalculate the % Inhibition using read conversion ratio (CR) following the equation as below.\nUse well treated with DMSO as High Control Use well without enzyme as Low Control"}, "[1]": {"target": "T2, DDR1 phosphorylation in T-47D (ATCC, HTB-133) cells (Homo sapiens, UniProt Q08345)", "T2 construct": "host or cells: T-47D", "T2 sequence (Q08345 19-913)": "as the sequence (Q08345 19-913) above", "test": "Measurement of DDR1 phosphorylation suppression rate by using T-47D cells (p-DDR1 ELISA)", "format": "cell-based", "details": "collagen Type I 10 μg/ml, p-DDR1 (panTyr) ELISA", "summary_of_the_method": "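T-47D cells were pre-treated with compound 24 h in RPMI/0.1% BSA (0.1% DMSO, 6-point 10-fold series), then stimulated with rat tail collagen I (10 μg/ml) for 24 h at 37 °C. Lysate p-DDR1 (panTyr) was read by ELISA; IC50 derived from % inhibition versus collagen and no-collagen controls.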"}}}
{"smiles": "Cc1cc(Oc2ccnc(N)n2)ccc1N1C(=O)CN(c2ccc(F)c(OC(F)(F)F)c2)C1=O", "note": "[Example 3(110), 3-{4-[(2-amino-4-pyrimidinyl)oxy]-2-methylphenyl}-1-[4-fluoro-3-(trifluoromethoxy)phenyl]-2,4-imidazolidinedione]", "values": [{"measurement": "IC50", "setting": "DDR1", "value": 1, "unit": "nM"}, {"measurement": "inhibition at 1 µM", "setting": "KDR", "value": 4, "unit": "%"}, {"measurement": "IC50", "setting": "[1]", "value": 1, "unit": "nM"}]}
